Assay results as given in article PMC9313475, “Green Tea Catechins, (−)‐Catechin Gallate, and (−)‐Gallocatechin Gallate are Potent Inhibitors of ABA‐Induced Stomatal Closure” (Advanced Science, 2022).

What was measured:
KAT1 = KAT1 (Arabidopsis thaliana, UniProt Q39128); test: two-electrode voltage clamp in Xenopus oocytes expressing the channel, […]; assay type: cell-based
KAT2 [1] = target: T1, KAT2 (Arabidopsis thaliana, UniProt Q38849); test: as above; assay type: cell-based
GORK = target: T2, GORK (Arabidopsis thaliana, UniProt Q94A76); test: as above; assay type: cell-based
T2 sequence (Q94A76 1-820): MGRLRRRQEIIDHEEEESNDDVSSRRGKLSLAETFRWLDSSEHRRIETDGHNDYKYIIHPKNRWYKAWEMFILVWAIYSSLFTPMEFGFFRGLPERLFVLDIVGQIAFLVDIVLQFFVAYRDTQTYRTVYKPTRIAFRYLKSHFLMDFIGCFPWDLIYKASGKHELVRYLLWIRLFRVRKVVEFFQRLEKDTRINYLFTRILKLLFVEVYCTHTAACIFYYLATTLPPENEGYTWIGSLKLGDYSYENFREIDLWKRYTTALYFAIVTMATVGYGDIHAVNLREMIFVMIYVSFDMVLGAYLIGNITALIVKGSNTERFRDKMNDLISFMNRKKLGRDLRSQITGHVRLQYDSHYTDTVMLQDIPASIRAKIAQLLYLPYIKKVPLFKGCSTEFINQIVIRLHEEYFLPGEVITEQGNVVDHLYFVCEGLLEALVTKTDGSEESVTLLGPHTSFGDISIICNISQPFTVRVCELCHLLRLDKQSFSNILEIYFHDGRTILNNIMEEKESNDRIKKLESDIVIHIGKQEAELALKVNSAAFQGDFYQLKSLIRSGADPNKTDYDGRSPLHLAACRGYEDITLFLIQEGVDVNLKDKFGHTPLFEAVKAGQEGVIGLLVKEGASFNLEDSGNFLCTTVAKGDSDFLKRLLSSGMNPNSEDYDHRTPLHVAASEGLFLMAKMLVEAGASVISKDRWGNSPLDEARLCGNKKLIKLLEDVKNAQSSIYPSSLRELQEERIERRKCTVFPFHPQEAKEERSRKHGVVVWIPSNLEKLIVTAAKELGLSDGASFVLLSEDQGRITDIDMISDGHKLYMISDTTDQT

KAT2 [2] = target: T1, KAT2; test: cell-based; settings: read-out: % inhibition at 0.5 mM

T1 sequence (Q38849 whole entry): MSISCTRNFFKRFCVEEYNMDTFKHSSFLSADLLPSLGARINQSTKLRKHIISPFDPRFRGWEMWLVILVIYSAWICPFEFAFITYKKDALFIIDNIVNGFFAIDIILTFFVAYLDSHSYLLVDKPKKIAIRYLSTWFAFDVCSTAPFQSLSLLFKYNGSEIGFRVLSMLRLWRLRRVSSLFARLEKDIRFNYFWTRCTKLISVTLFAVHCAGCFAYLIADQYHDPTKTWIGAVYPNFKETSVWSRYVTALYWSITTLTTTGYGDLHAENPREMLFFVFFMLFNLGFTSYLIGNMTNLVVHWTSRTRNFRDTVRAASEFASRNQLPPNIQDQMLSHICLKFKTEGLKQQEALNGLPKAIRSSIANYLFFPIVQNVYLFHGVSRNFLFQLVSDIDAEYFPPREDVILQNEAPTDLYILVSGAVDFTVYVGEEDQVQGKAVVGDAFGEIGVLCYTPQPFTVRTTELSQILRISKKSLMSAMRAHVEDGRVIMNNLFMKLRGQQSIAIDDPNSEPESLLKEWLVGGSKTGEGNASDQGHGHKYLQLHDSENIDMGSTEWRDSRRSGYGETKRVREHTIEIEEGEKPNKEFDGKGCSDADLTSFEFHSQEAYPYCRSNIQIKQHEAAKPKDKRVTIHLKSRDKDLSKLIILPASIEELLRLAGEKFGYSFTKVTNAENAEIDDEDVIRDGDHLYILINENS
KAT1, sequence (Q39128 whole entry): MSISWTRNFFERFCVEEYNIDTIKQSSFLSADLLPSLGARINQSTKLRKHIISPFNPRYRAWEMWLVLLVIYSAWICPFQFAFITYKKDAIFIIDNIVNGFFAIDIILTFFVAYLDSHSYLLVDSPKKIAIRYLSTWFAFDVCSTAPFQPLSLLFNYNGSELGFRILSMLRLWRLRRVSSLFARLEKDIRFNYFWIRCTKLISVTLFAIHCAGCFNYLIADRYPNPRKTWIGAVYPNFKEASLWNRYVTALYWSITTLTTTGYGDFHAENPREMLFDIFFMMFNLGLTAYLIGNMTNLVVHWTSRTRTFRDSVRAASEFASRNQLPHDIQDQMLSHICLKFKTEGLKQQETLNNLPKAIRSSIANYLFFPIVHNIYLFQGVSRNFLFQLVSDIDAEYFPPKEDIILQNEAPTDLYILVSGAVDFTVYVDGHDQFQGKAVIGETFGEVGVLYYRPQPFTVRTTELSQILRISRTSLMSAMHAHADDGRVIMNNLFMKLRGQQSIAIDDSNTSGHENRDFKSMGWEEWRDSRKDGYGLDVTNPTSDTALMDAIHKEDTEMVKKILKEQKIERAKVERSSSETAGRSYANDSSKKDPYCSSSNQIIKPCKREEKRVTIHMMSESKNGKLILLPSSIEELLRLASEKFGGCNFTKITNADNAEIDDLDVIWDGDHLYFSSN

SMILES: O=C(O[C@@H]1Cc2c(O)cc(O)cc2O[C@H]1c1ccc(O)c(O)c1)c1cc(O)c(O)c(O)c1 [CG, (−)-catechin gallate]
- two-electrode voltage clamp in Xenopus oocytes expressing the channel, 500 μM (KAT1): Both CG and GCG inhibited KAT1 and KAT2 (Figure 3A,B).
- two-electrode voltage clamp in Xenopus oocytes expressing the channel, 500 μM (KAT2 [1]): Both CG and GCG inhibited KAT1 and KAT2 (Figure 3A,B).
- two-electrode voltage clamp in Xenopus oocytes expressing the channel, 500 μM (GORK): GORK was strongly inhibited by CG and GCG, whereas AKT1 and AKT2 were less sensitive to CG and GCG.

SMILES: O=C(O[C@@H]1Cc2c(O)cc(O)cc2O[C@H]1c1cc(O)c(O)c(O)c1)c1cc(O)c(O)c(O)c1 [GCG, (−)-gallocatechin gallate]
- two-electrode voltage clamp in Xenopus oocytes expressing the channel, 500 μM (KAT1): Both CG and GCG inhibited KAT1 and KAT2 (Figure 3A,B).
- two-electrode voltage clamp in Xenopus oocytes expressing the channel, 500 μM (KAT2 [1]): Both CG and GCG inhibited KAT1 and KAT2 (Figure 3A,B).
- two-electrode voltage clamp in Xenopus oocytes expressing the channel, 500 μM (GORK): GORK was strongly inhibited by CG and GCG, whereas AKT1 and AKT2 were less sensitive to CG and GCG.

SMILES: CC[N+](CC)(CC)CC [TEA, tetraethylammonium]
- inhibition at 500 µM (KAT2 [2]): 14%
